Reference: patent US20160083733A1, “NOVEL TREATMENT OF METABOLIC DISEASES” (UNIVERSITY OF BREMEN, priority 2013, published 2016)
Blank lines part the entries; values can stand above or below the compound they belong to. Where a SMILES comes first, the peptide text is derived from it. Where no end group is shown, it is not given here. The star is where a group is joined. Cbz = O=C(OCc1ccccc1)*

How the values were obtained:
PDX1 [1] = assay: PDX1 protein level, degradation and ubiquitination in HEK293 cells co-transfected with MST1; format: cell-based, mouse
Excerpt: pCMV-myc-MST1 and kinase-dead (MST1-K59; dnMST1) are described in Yamamoto et al., J. Clin. Invest. 111 (2003), 1463-1474. Mouse pB.RSV.PDX1-GFP is described in Kawamori et al., Diabetes 52 (2003) 2896-2904. pcDNA3 Myr-HA Akt1, HA-Ubiquitin and pCDNA3 Jnk1a1 (apf)(dn-JNK) plasmids were obtained from Addgene (Cambridge, Mass.). Mouse PDX1 mutants (T11, T126, T152, T155, T214 and T231) in pCGIG5 vector were generated by site-directed mutagenesis as described previously (Frogne et al., 7 (2012), e35233). All mutations were verified by sequencing. To make bacterial expression plasmids for PDX1 mutants, the complete mouse PDX1 CDS (wild type and mutants) has been amplified by PCR using a specific set of primers from pCGIG5 plasmids and cloned into a pGEX-6P-1 bacterial expression vector. The rat insulin driven luciferase vector (RIP-Luc) was constructed by subcloning a 700 by fragment containing −660 bp of the rat 2 insulin promoter into a pMCS-Green-Renilla-Luc vector (Thermo Scientific). pCMV-Red firefly Luc vector was obtained from Thermo Scientific.
HEK293 cells were cultured in 10-cm cell culture dishes and transfected with HA-ubiquitin, PDX1 and MST1 expression plasmids for 48 h. For ubiquitination in human islets, 5000 islets per condition were transfected with ubiquitin plasmid. After 24 h, islets were infected with Ad-GFP or Ad-MST1 for 6 h and kept for another 48 h. […] Lysates were immunoprecipitated with PDX1-specific antibody overnight at 4° C. Immunocomplexes were then captured with Protein A Agarose by rotation at 4° C. for 4 h. After extensive washing, immunoprecipitates were boiled in sample buffer and proteins subjected to western blotting with ubiquitin-specific antibody.
HEK293 cells were transfected with PDX1 alone, or together with MST1 expressing-plasmids. Human islets were infected with Ad-GFP (control) or Ad-MST1. At 48 h after post-transfection/infection, cells were treated with 50 μg/ml translation initiation inhibitor cycloheximde (CHX) to the medium at the times indicated and the lysates were subjected to western blotting.

human islets = assay: Glucose stimulated insulin secretion (GSIS) in human islets; format: cell-based; conditions: Ad-MST1 72 h
Method: (§1) For acute insulin release in response to glucose, primary human and mouse islets and INS1 cells were washed and pre-incubated (30 min) in Krebs-Ringer bicarbonate buffer (KRB) containing 2.8 mM glucose and 0.5% BSA. KRB was then replaced by KRB 2.8 mM glucose for 1 h (basal), followed by an additional 1 h in KRB 16.7 mM glucose. Insulin content was extracted with 0.18N HCl in 70% ethanol. Insulin was determined using human and mouse insulin ELISA (ALPCO Diagnostics, Salem, N.H.). Secreted insulin was normalized to insulin content.

PDX1 target genes [2] = assay: RT-PCR of PDX1 target genes in INS-1E cells; format: cell-based, rat; conditions: INS-1E cells (FIG. 21 d)
Excerpt: (§2) Total RNA was isolated from cultured human islets and INS1 cells using TRIzol (Invitrogen), and RT-PCR performed as described previously (Shu et al., Diabetologica 55 (2012), 3296-307). For analysis, the Applied Biosystems StepOne Real-Time PCR system (Applied Biosystems, CA, USA) with TaqMan® Fast Universal PCR Master Mix for TaqMan assays (Applied Biosystems) was used. TaqMan® Gene Expression Assays were used for pdx1 (Hs00426216_m1), SLC2A2 (Hs01096905_m1), GCK (Hs01564555_m1), insulin (Hs02741908_m1), PPIA (Hs99999904_m1) and tubulin (Hs00362387_m1) for human and PDX1 (Rn00755591_m1), SLC2A2 (Rn00563565_m1), GCK (Rn00688285_m1), INS1 (Rn02121433_g1), […] (Rn01774648_g1), BCL2L11 (Hs01083836_m1), PPIA (Rn00690933_m1) and tuba1a (Rn01532518_g1) for rat.

PDX1 [3] = assay: Luciferase reporter assay of PDX1 transcriptional activity (rat Ins2-Luc) in HEK293 cells; format: cell-based; conditions: HEK293, 48 h
Method: The transcriptional activity of the PDX1 at promoter level was evaluated using rat Ins2-Luc renilla reporter gene HEK293 cells were transfected with Ins2-Luc renilla, pCMV-firefly, PDX1-WT or PDX1-T11A, alone or together with Myc-MST1 expressing plasmids for 48 h. INS-1E cells transfected with Ins2-Luc renilla and pCMV-firefly plasmids and were infected with Ad-GFP or Ad-MST1 for 48 h. Luciferase activity determined using the Renilla-Firefly Luciferase Dual Assay Kit according to the manufacturer's instructions (Pierce). pCMV-firefly was used as transfection control.

PDX1 target genes [4] = assay: RT-PCR of PDX1 target genes in human islets; format: cell-based; conditions: human islets (FIG. 15 q)
Excerpt: as §2

INS-1E cells = assay: Glucose stimulated insulin secretion (GSIS) in INS-1E cells; format: cell-based, rat; conditions: Ad-MST1 72 h
Method: as §1

MST1 [5] = molecular target: T1, MST1 (Homo sapiens, UniProt Q13043); assay: In vitro kinase assay, phosphorylation of PDX1 by recombinant MST1; format: biochemical
T1 construct: purchased Upstate Biotechnology
T1 sequence (Q13043 1-487): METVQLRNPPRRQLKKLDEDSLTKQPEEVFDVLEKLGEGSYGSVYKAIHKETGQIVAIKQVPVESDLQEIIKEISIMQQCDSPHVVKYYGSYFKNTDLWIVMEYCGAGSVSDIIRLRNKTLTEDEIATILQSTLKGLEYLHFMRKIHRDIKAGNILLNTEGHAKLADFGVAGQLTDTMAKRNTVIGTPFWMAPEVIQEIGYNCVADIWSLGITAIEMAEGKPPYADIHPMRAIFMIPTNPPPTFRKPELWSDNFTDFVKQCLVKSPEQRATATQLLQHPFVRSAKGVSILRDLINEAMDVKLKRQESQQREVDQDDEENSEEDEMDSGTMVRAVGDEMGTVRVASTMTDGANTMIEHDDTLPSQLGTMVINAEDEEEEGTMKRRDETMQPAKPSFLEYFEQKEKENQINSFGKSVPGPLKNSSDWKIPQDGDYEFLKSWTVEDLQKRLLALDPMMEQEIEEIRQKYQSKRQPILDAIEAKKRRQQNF
Method: For immunoprecipitation, cells were washed with PBS and lysed in cold buffer containing 20 mM Tris-HCl (pH 7.5), 150 mM NaCl, 0.27 M sucrose, 1 mM EDTA, 1 mM EGTA, 50 mM NaF, 1% NP-40, 5 mM sodium pyrophosphate and 10 mM β-glycerophosphate supplemented with proteinase/phosphatase inhibitors for 30 min on ice. Lysates were centrifuged at 12,000 g for 15 min at 4° C. prior to immunoprecipitation. Immunoprecipitations were carried out with incubating 0.5-1 mg of total lysate with rabbit anti-PDX1 (1:500), rabbit anti-MST1 (1:50), mouse anti-Myc (1:1000) and rabbit anti-GFP (1:1000) antibodies on a rotator at 4° C. overnight. Immunocomplexes were then captured with Protein A Agarose Fast Flow (Millipore) by rotation at 4° C. for 4 h. After five washes with cold lysis buffer, the immunoprecipitates were used for kinase assays or resuspended in sample buffer and separated by NuPAGE 4-12% Bis-Tris gels (Invitrogen).
Purified human active MST1 (Upstate Biotechnology) was incubated with ^32P-ATP (2 μCi, Perkin Elmer Life Sciences), ATP (100 μM) and 1 mM dithiothreitol (DTT) in a kinase buffer containing 40 mM HEPES (pH 7.4), 20 mM MgCl2, 1 mM EDTA and 1 μg of purified recombinant human PDX-1 (Abcam) or bacterially purified GST-PDX1 (WT and mutants) as substrates. After incubation at 30° C. for 30 min, the reaction was stopped by adding loading buffer and proteins were separated on NuPAGE gels and phosphorylation levels visualized either by autoradiography or specific antibody for phospho-PDX1. The total PDX1 was detected with anti-PDX1 antibody.
Expression and induction of recombinant GST proteins were performed as described previously (Tolia et al., Nat. Methods 3 (2006), 55-64). Escherichia coli BL21 cells with various GST-fusion expression plasmids were cultured at 37° C. and expression of recombinant proteins was induced by 0.1 mM final concentration of Isopropyl-β-D-thio-galactoside (IPTG; sigma) for 2.5 h. Cells were lysed using B-PER bacterial protein extraction reagent (Pierce) and purified using Glutathione Spin Columns (Pierce).

MST1 [6] = assay: MST1 activation and AKT signalling in INS-1E cells and human islets, western blotting; format: cell-based, rat; conditions: for glucose- and cytokine-induced P-MST1, MST1-cleavage and apoptosis: INS-1E cells, 72 h, GLP1 and insulin 100 nM
Method: Islet purity was greater than 95% as judged by dithizone staining (if this degree of purity was not achieved by routine isolation, islets were handpicked). Islets from MST1^−/− mice and their WT littermates were isolated as described previously (Schulthess et al., Cell. Metab. 9 (2009) 125-139). Pancreata were perifused with a Liberase™ (#05401119001, Roche, Mannheim, Germany) solution according to the manufacturer's instructions and digested at 37° C., followed by washing and handpicking Human islets were cultured in complete CMRL-1066 (Invitrogen) medium at 5.5 mM glucose and mouse islets and INS-1E cells at complete RPMI-1640 medium at 11.1 mM glucose and HEK293 cells were cultured in Dulbecco's modified Eagle's medium (DMEM). All media included with glutamate, 1% penicillin-streptomycin and 10% fetal bovine serum (FBS, all PAA). INS-1E medium was supplemented with 10 mM HEPES, 1 mM sodium pyruvate and 50 μM β-mercaptoethanol. Islets and INS-1E were exposed to complex diabetogenic conditions: 22.2-33.3 mM glucose, 0.5 mM palmitic acid, the mixture of 2 ng/ml recombinant human IL-1β (R&D Systems, Minneapolis, Minn.)+1,000 U/ml recombinant human IFN-γ (PeProTech) for 72 h, 100 μM H2O2 for 6 h, 1 mM streptozotocin (STZ) for 8 h or 1 mM thapsigargin for 6 h (all Sigma).
At the end of the incubation periods, islets and INS1E cells were washed in ice-cold PBS and lysed in lysis buffer containing 20 mM Tris acetate, 0.27 M sucrose, 1 mM EDTA, 1 mM EGTA, 50 mM NaF, 1% Triton X-100, 5 mM sodium pyrophosphate and 10 mM β-glycerophosphate. Prior to use, the lysis buffer was supplemented with Protease- and Phosphatase-inhibitors (Pierce, Rockford, Ill., USA). Protein concentrations were determined with the BCA protein assay (Pierce). Equivalent amounts of protein from each treatment group were run on a NuPAGE 4-12% Bis-Tris gel (Invitrogen) and electrically transferred onto PVDF membranes. […] Membrane was developed using a chemiluminescence assay system (Pierce) and analyzed using DocIT®LS image acquisition 6.6a (UVP BioImaging Systems, Upland, Calif., USA).

Compound: CC(C)C[C@@H](C=O)NC(=O)[C@H](CC(C)C)NC(=O)[C@H](CC(C)C)NC(=O)OCc1ccccc1 [MG-132, reference compound] (Cbz-Leu-Leu-Leu-aldehyde)
- disappearance of PDX1 (PDX1 [1]; PDX1 overexpressing HEK293 cells with MST1, MG-132 50 μM for 6 h): abolished

- phosphorylation by recombinant MST1 of PDX1 immunoprecipitated from HEK293 cells (MST1 [5]; all PDX1 mutants transfected into HEK293): markedly decreased
- MST1-induced phosphorylation at the Thr11 site and overall Thr-phosphorylation (MST1 [5]; p-T11 and pan-Threonine antibodies, immunoprecipitated PDX1): markedly reduced
- threonine phosphorylation of PDX1-GST fusion proteins by MST1 (MST1 [5]; proteins purified from bacteria, pan-phospho threonine antibody): exception
Compound: PDX1-T11A: mutant PDX1 with amino acid Thr11 substituted to alanine, inert to phosphorylation by MST1
- MST1-induced impairment in GSIS (human islets): normalized
- MST1-induced down regulation of PDX1 target genes (PDX1 target genes [2]): restored
- Reduction of PDX1 transcriptional activity by MST1 (PDX1 [3]): not
- MST1-induced rapid degradation of PDX1 in the presence of CHX (PDX1 [1]; 50 μg/ml CHX): did not occur
- PDX1 levels in presence of MST1 (PDX1 [1]; HEK293 cells, 48 h): does not decrease
- PDX1 ubiquitination (PDX1 [1]; HEK293 cells, HA-ubiquitin, 48 h, MG-132 last 6 h): less
- MST1-induced down regulation of PDX1 target genes (PDX1 target genes [4]): restored
- MST1-induced impairment in GSIS (INS-1E cells): normalized

Compound: insulin: recombinant human insulin
- glucose- and cytokine-induced P-MST1, MST1-cleavage and apoptosis (MST1 [6]): inhibited

Compound: GLP1: Glucagon like-peptide 1 (Sigma), exogenously added mitogen (HAEGTFTSDVSSYLEGQAAKEFIAWLVKGR; ends and bridges not checked; UniProt P01275 98-127, looked up)
- glucose- and cytokine-induced P-MST1, MST1-cleavage and apoptosis (MST1 [6]): inhibited

Compound: z-DEVD-fmk
- stress-induced MST1 cleavage by diabetic stimuli (MST1 [6]; human islets and INS-1E cells): JNK and caspase-3 were responsible for stress-induced MST1 cleavage
